Assay results as given in patent publication US20230131899A1, “INHIBITORS OF MICROBIALLY INDUCED AMYLOID” (Axial Therapeutics, Inc., priority 2020, published 2023).
Read-outs that look alike come from different tables or passages of the source.

Target: T1, E. coli CsgA (Escherichia coli, UniProt P28307)
T1 construct: made in house; host or cells: E. coli NEB 3016 slyD::kan, pET11d
Experiment: In vitro ThioflavinT assay of CsgA aggregation (CsgA ThT Assay)
Type: biochemical
Conditions: for remaining activity at 25 µM: compound 25 μM; for remaining activity at 100 µM: compound 100 μM
In short: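 Purified C-terminal His-tagged CsgA, monomerised by desalting and 30-kDa filtration, at 2-20 μM with 20-40 μM ThT in 50 mM potassium phosphate pH 7.3, 1% DMSO, compounds 3.125-200 uM; room temperature, fluorescence (ex 438/em 495 nm) read every 15 min. Background-subtracted signal expressed as percent inhibition versus vehicle at 6-6.5 or 8-9 h, or as percent control AUC.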

[1] = read-out: CsgA ThT Assay (2 μM CsgA) % Control Bmax 25 μM, activity range, class symbol, CsgA 2 μM, white plates
[2] = read-out: CsgA ThT Assay (2 μM CsgA) % Control Bmax 25 μM, mean Bmax as percentage of DMSO control, CsgA 2 μM, white plates
[3] = read-out: CsgA ThT Assay (2 μM CsgA) % Control Bmax 100 μM, activity range, class symbol, CsgA 2 μM, white plates
[4] = read-out: CsgA ThT Assay (2 μM CsgA) % Control Bmax 100 μM, mean Bmax as percentage of DMSO control, CsgA 2 μM, white plates
[5] = read-out: CsgA ThT Assay (10 μM CsgA) % Control AUC at 1005 minutes, 25 μM (activity range), CsgA 10 μM, black plates, 1005 minutes, class symbol
[6] = read-out: CsgA ThT Assay (10 μM CsgA) % Control AUC at 1005 minutes, 25 μM, mean AUC as % of DMSO control, CsgA 10 μM, black plates, 1005 minutes
[7] = read-out: CsgA ThT Assay (10 μM CsgA) % Control AUC at 1005 minutes, 100 μM (activity range), CsgA 10 μM, black plates, 1005 minutes, class symbol
[8] = read-out: CsgA ThT Assay (10 μM CsgA) % Control AUC at 1005 minutes, 100 μM, mean AUC as % of DMSO control, CsgA 10 μM, black plates, 1005 minutes

T1 sequence (P28307 23-151): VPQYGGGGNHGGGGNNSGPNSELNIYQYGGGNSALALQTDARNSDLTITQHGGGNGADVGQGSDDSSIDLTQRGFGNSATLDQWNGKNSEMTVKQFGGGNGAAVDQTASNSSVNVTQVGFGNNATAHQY

SMILES: O=C(O)C1CN(CC2CCOCC2)c2c(-c3cccc(C(F)(F)F)c3)c(Cc3cccc4ccccc34)c(Cl)c(=O)n21 (centres unmarked) [Compound 182, 6-chloro-7-(naphthalen-1-ylmethyl)-5-oxo-1-((tetrahydro-2H-pyran-4-yl)methyl)-8-(3-(trifluoromethyl)phenyl)-1,2,3,5-tetrahydroimidazo[1,2-a]pyridine-3-carboxylic acid]
- remaining activity at 25 µM [1]: > 60%
- remaining activity at 25 µM [2]: 68%
- remaining activity at 100 µM [3]: > 60%
- remaining activity at 100 µM [4]: 61%

SMILES: CN1CC(C(=O)O)n2c(c(-c3cccc(C(F)(F)F)c3)c(Cc3cccc4ccccc34)c(C(=O)NC(C)(C)C)c2=O)S1(=O)=O (centres unmarked) [Compound 158, 7-(tert-butylcarbamoyl)-2-methyl-8-(naphthalen-1-ylmethyl)-6-oxo-9-(3-(trifluoromethyl)phenyl)-3,4-dihydro-2H,6H-pyrido[1,2-e][1,2,5]thiadiazine-4-carboxylic acid 1,1-dioxide]
- remaining activity at 25 µM [1]: > 60%
- remaining activity at 25 µM [2]: 69%
- remaining activity at 100 µM [3]: > 60%
- remaining activity at 100 µM [4]: 72%

SMILES: O=C(O)C1CN(Cc2cccc3ccccc23)c2c(-c3cccc(C(F)(F)F)c3)c(Cc3cccc4ccccc34)c(Cl)c(=O)n21 (centres unmarked) [Compound 200, 6-chloro-1,7-bis(naphthalen-1-ylmethyl)-5-oxo-8-(3-(trifluoromethyl)phenyl)-1,2,3,5-tetrahydroimidazo[1,2-a]pyridine-3-carboxylic acid]
- remaining activity at 25 µM [1]: 31 to 60%
- remaining activity at 25 µM [2]: 52%
- remaining activity at 100 µM [3]: < 10%
- remaining activity at 100 µM [4]: 7%

SMILES: CCNC(=O)c1c(Cc2cccc3ccccc23)c(-c2cccc(C(F)(F)F)c2)c2n(c1=O)C(C(=O)O)CN(C)S2(=O)=O (centres unmarked) [Compound 156, 7-(ethylcarbamoyl)-2-methyl-8-(naphthalen-1-ylmethyl)-6-oxo-9-(3-(trifluoromethyl)phenyl)-3,4-dihydro-2H,6H-pyrido[1,2-e][1,2,5] thiadiazine-4-carboxylic acid 1,1-dioxide]
- remaining activity at 25 µM [1]: > 60%
- remaining activity at 25 µM [2]: 80%
- remaining activity at 100 µM [3]: > 60%
- remaining activity at 100 µM [4]: 90%

SMILES: O=C(O)C1CN(Cc2ccccc2)c2c(-c3cccc(C(F)(F)F)c3)c(Cc3cccc4ccccc34)c(Cl)c(=O)n21 (centres unmarked) [Compound 004, 1-benzyl-6-chloro-7-(naphthalen-1-ylmethyl)-5-oxo-8-(3-(trifluoromethyl)phenyl)-1,2,3,5-tetrahydroimidazo[1,2-a]pyridine-3-carboxylic acid]
- remaining activity at 25 µM [1]: 31 to 60%
- remaining activity at 25 µM [2]: 57%
- remaining activity at 100 µM [3]: 11 to 31%
- remaining activity at 100 µM [4]: 26%

SMILES: Cn1c(=O)c2c(ncn2CCCCN2CC(C(=O)O)n3c(c(-c4cccc(C(F)(F)F)c4)c(Cc4cccc5ccccc45)cc3=O)S2(=O)=O)n(C)c1=O (centres unmarked) [Compound 033, 2-(4-(1,3-dimethyl-2,6-dioxo-1,2,3,6-tetrahydro-7H-purin-7-yl)butyl)-8-(naphthalen-1-ylmethyl)-6-oxo-9-(3-(trifluoromethyl)phenyl)-3,4-dihydro-2H,6H-pyrido[1,2-e][1,2,5]thiadiazine-4-carboxylic acid 1,1-dioxide]
- remaining activity at 25 µM [5]: > 60%
- remaining activity at 25 µM [6]: 68%
- remaining activity at 100 µM [7]: > 60%
- remaining activity at 100 µM [8]: 79%

SMILES: CCCN1CC(C(=O)O)n2c(c(-c3cccc(C(F)(F)F)c3)c(Cc3cccc4ccccc34)c(NC(=O)CC)c2=O)S1(=O)=O (centres unmarked) [Compound 153, 8-(naphthalen-1-ylmethyl)-6-oxo-7-propionamido-2-propyl-9-(3-(trifluoromethyl)phenyl)-3,4-dihydro-2H,6H-pyrido[1,2-e][1,2,5]thiadiazine-4-carboxylic acid 1,1-dioxide]
- remaining activity at 25 µM [1]: > 60%
- remaining activity at 25 µM [2]: 91%
- remaining activity at 100 µM [3]: > 60%
- remaining activity at 100 µM [4]: 83%

SMILES: Cn1c(=O)c2c(nc(CCCCCCN3CC(C(=O)O)n4c(c(-c5cccc(C(F)(F)F)c5)c(Cc5cccc6ccccc56)cc4=O)S3(=O)=O)n2C)n(C)c1=O (centres unmarked) [Compound 046, 8-(naphthalen-1-ylmethyl)-6-oxo-9-(3-(trifluoromethyl)phenyl)-2-(6-(1,3,7-trimethyl-2,6-dioxo-2,3,6,7-tetrahydro-1H-purin-8-yl)hexyl)-3,4-dihydro-2H,6H-pyrido[1,2-e][1,2,5]thiadiazine-4-carboxylic acid 1,1-dioxide]
- remaining activity at 25 µM [5]: 31 to 60%
- remaining activity at 25 µM [6]: 55%
- remaining activity at 100 µM [7]: 31 to 60%
- remaining activity at 100 µM [8]: 55%

SMILES: CC(C)CN1CC(C(=O)O)n2c1c(-c1cccc(C(F)(F)F)c1)c(Cc1cccc3ccccc13)c(Cl)c2=O (centres unmarked) [Compound 164, 6-chloro-1-isobutyl-7-(naphthalen-1-ylmethyl)-5-oxo-8-(3-(trifluoromethyl)phenyl)-1,2,3,5-tetrahydroimidazo[1,2-a]pyridine-3-carboxylic acid]
- remaining activity at 25 µM [1]: 31 to 60%
- remaining activity at 25 µM [2]: 52%
- remaining activity at 100 µM [3]: 31 to 60%
- remaining activity at 100 µM [4]: 42%

SMILES: N#Cc1cccc(CN2CC(C(=O)O)n3c2c(-c2cccc(C(F)(F)F)c2)c(Cc2cccc4ccccc24)c(Cl)c3=O)c1 (centres unmarked) [Compound 168, 6-chloro-1-(3-cyanobenzyl)-7-(naphthalen-1-ylmethyl)-5-oxo-8-(3-(trifluoromethyl)phenyl)-1,2,3,5-tetrahydroimidazo[1,2-a]pyridine-3-carboxylic acid]
- remaining activity at 25 µM [1]: > 60%
- remaining activity at 25 µM [2]: 76%
- remaining activity at 100 µM [3]: 31 to 60%
- remaining activity at 100 µM [4]: 47%

SMILES: O=C(O)C1CN(CC2CCCCC2)c2c(-c3cccc(C(F)(F)F)c3)c(Cc3cccc4ccccc34)c(Cl)c(=O)n21 (centres unmarked) [Compound 180, 6-chloro-1-(cyclohexylmethyl)-7-(naphthalen-1-ylmethyl)-5-oxo-8-(3-(trifluoromethyl)phenyl)-1,2,3,5-tetrahydroimidazo[1,2-a]pyridine-3-carboxylic acid]
- remaining activity at 25 µM [1]: > 60%
- remaining activity at 25 µM [2]: 65%
- remaining activity at 100 µM [3]: 11 to 31%
- remaining activity at 100 µM [4]: 21%

SMILES: O=C(O)C1CSc2c(-c3cccc(C(F)(F)F)c3)c(C(F)(F)c3cccc4ccccc34)cc(=O)n21 (centres unmarked) [Compound 073, 7-(difluoro(naphthalen-1-yl)methyl)-5-oxo-8-(3-(trifluoromethyl)phenyl)-2,3-dihydro-5H-thiazolo[3,2-a]pyridine-3-carboxylic acid]
- remaining activity at 25 µM [5]: 11 to 31%
- remaining activity at 25 µM [6]: 27%
- remaining activity at 100 µM [7]: > 60%
- remaining activity at 100 µM [8]: 97%

SMILES: CCCN1CC(C(=O)O)n2c(c(-c3cccc(C(F)(F)F)c3)c(Cc3cccc4ccccc34)c(O)c2=O)S1(=O)=O (centres unmarked) [Compound 141, 7-hydroxy-8-(naphthalen-1-ylmethyl)-6-oxo-2-propyl-9-(3-(trifluoromethyl)phenyl)-3,4-dihydro-2H,6H-pyrido[1,2-e][1,2,5]thiadiazine-4-carboxylic acid 1,1-dioxide]
- remaining activity at 25 µM [1]: > 60%
- remaining activity at 25 µM [2]: 80%
- remaining activity at 100 µM [3]: > 60%
- remaining activity at 100 µM [4]: 94%

SMILES: O=C(O)C1CSc2c(-c3cccc(C(F)(F)F)c3)c(Cc3cccc4ccccc34)cc(=S)n21 (centres unmarked) [Compound 054, 7-(naphthalen-1-ylmethyl)-5-thioxo-8-(3-(trifluoromethyl)phenyl)-2,3-dihydro-5H-thiazolo[3,2-a]pyridine-3-carboxylic acid]
- remaining activity at 25 µM [5]: 31 to 60%
- remaining activity at 25 µM [6]: 44%
- remaining activity at 100 µM [7]: 31 to 60%
- remaining activity at 100 µM [8]: 50%
